Values quoted from earlier work, collected in US20110104282A1, “New Therapy of Treatment of the Irritable Bowel Syndrome” (Karolinska Institutet Innovations AB, priority 2008, published 2011).

Conditions: on occasion

## N[C@@H](Cc1c[nH]c2ccccc12)C(=O)O [tryptophan]
  adverse side effects of high doses: intestinal discomfort and nausea
